Source: PMC10377541, “Further Characterization of Fungal Halogenase RadH and Its Homologs” (Biomolecules, 2023)

Legend:
A0A066XG69 = biological target: T1, A0A066XG69 (Colletotrichum sublineola, UniProt A0A066XG69); experiment: HPLC-MS chlorination assay; format: biochemical; conditions: FAD, Fre, NADH, MgCl2, Tris HCl pH 7.4, 18 h
T1 construct: gene CSUB01_08252; heterologously expressed in E. coli; RadH homolog

E3R0Q3 = biological target: T2, E3R0Q3 (Colletotrichum graminicola, UniProt E3R0Q3); experiment: HPLC-MS chlorination assay; format: biochemical; conditions: FAD, Fre, NADH, MgCl2, Tris HCl pH 7.4, 18 h
T2 construct: gene GLRG_11837; heterologously expressed in E. coli; RadH homolog

RadH = biological target: T3, RadH (Floropilus chiversii, UniProt C5H881); experiment: X-ray crystallography, […] Å; conditions: FAD bound in the flavin-binding domain; chlorine atom in adjacent space; crystals pH 6.5
T3 construct: codon-optimized synthetic gene in pET28, expressed in E. coli T7 Express, Ni-NTA purified; two monomers in the asymmetric unit
T3 sequence (C5H881 whole entry, the tested form may be a part): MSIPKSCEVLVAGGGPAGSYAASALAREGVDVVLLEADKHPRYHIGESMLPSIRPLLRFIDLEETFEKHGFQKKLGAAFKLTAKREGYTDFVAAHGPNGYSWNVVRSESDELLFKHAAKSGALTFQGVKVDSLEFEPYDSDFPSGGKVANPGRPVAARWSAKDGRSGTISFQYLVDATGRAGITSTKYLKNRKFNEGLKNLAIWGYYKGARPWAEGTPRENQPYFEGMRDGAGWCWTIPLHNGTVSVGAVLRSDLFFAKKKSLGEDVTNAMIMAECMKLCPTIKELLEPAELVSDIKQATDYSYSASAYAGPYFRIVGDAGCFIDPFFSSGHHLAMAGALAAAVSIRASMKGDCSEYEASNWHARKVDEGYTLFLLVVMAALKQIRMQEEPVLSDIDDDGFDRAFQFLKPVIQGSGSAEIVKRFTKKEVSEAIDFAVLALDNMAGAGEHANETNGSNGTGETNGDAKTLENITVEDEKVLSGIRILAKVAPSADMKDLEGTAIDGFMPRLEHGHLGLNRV

T1 sequence (A0A066XG69 1-512): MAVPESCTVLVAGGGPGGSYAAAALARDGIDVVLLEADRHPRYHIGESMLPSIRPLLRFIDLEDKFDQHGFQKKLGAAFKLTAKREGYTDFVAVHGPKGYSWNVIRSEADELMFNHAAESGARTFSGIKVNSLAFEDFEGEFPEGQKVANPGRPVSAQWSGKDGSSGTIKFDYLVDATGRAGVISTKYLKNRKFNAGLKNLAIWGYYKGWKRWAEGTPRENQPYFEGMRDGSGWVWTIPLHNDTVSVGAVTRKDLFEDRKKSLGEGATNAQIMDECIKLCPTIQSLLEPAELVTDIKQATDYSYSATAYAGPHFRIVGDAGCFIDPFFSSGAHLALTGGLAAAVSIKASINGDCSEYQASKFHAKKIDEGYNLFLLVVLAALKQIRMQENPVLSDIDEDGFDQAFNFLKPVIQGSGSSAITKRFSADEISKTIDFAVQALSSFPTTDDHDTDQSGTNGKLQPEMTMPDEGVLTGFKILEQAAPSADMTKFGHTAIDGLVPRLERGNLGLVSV
T2 sequence (E3R0Q3 1-512): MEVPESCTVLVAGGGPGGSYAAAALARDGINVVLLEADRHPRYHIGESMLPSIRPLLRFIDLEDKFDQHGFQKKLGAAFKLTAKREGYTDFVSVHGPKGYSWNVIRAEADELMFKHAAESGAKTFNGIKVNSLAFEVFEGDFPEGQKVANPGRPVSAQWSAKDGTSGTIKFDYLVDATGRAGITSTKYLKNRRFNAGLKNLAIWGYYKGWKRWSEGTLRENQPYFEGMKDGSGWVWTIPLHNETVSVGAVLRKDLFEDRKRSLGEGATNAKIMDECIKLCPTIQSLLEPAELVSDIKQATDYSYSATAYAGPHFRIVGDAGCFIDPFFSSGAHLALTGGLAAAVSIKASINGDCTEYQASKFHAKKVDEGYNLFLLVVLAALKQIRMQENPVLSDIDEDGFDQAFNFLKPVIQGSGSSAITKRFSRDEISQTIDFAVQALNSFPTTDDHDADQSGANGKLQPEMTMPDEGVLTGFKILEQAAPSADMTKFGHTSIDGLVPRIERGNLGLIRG

Oc1ccc2cnccc2c1 [6-hydroxyisoquinoline]
HPLC-MS chlorination assay (A0A066XG69): A0A066XG69 demonstrated higher conversion compared to RadH or E3R0Q3 | HPLC-MS chlorination assay (E3R0Q3): E3R0Q3 (Colletotrichum graminicola) and A0A066XG69 (Colletotrichum sublineola), showed activity with standard 6-hydroxyhisoquinoline substrates

Cc1cc2nc3c(=O)[nH]c(=O)nc-3n(C[C@H](O)[C@H](O)[C@H](O)COP(=O)(O)OP(=O)(O)OC[C@H]3O[C@@H](n4cnc5c(N)ncnc54)[C@H](O)[C@@H]3O)c2cc1C [FAD]
X-ray crystallography, 2.4 Å (RadH): Each monomer consists of a conserved Flavin-binding domain with FAD bound
